In US9359451B2, “Methods and compositions for treating trauma-hemorrhage using estrogen and derivatives thereof” (THE UAB RESEARCH FOUNDATION, priority 2012, dated 2016):

Legend:
[1] = system: splenic macrophages (sMΦ) and peritoneal macrophages (pMΦ); test: Splenic and peritoneal macrophage cytokine release after trauma-hemorrhage (ex vivo, LPS); assay type: in vivo, mouse; details: 24 h after trauma-hemorrhage, LPS 48 h
Description: Experimental groups. Ovariectomy was performed in female CBA/J mice 2 wk before trauma-hemorrhage using two dorsolateral incisions. […] Two weeks after ovariectomy, the animals were divided into four groups. Groups 1 and 2 consisted of sham-operated ovariectomized females, which were neither hemorrhaged nor resuscitated. Animals in groups 3 and 4 consisted of ovariectomized females, which were subjected to the trauma-hemorrhage procedure. Immediately before initiation of fluid resuscitation, animals in groups 1 and 3 received a subcutaneous injection of vehicle ([…] corn oil), and animals in groups 2 and 4 were treated with E2 ([…]/25 g body wt dissolved in […] corn oil). Each group consisted of 7-8 animals.
Trauma-hemorrhage procedure. Mice in the trauma-hemorrhage groups were lightly anesthetized with methoxyflurane (Metofane; Pitman Moore, Mundelein, Ill.) and restrained in a supine position, and a 2.5-cm midline laparotomy (i.e., soft tissue trauma induced) was performed, which was then closed aseptically in two layers using 6-0 Ethilon sutures (Ethicon, Somerville, N.J.). Both femoral arteries were then aseptically cannulated with polyethylene-10 tubing (Clay-Adams, Parsippany, N.J.) using a minimal dissection technique, and the animals were allowed to awaken. Blood pressure was constantly monitored by attaching one of the catheters to a blood pressure analyzer (Micro-Med, Louisville, Ky.). Lidocaine was applied to the incision sites to provide analgesia during the study period. Upon awakening, the animals were bled through the other catheter to a mean arterial blood pressure of 35±5 mmHg (mean arterial blood pressure prehemorrhage was 95±5 mmHg), which was maintained for 90 min. At the end of that procedure, the animals were resuscitated with four times the shed blood volume in the form of lactated Ringer solution. The catheters were then removed, the vessels were ligated, and the groin incisions were closed. Sham-operated animals underwent the same surgical procedure, which included ligation of both femoral arteries, but neither hemorrhage nor fluid resuscitation was carried out. There was no mortality observed in this model of trauma-hemorrhage.
Preparation of sMΦ and pMΦ culture. Spleens were harvested aseptically, and sMΦ cultures were established as previously described in detail (Zellweger 1996). Resident pMΦ were harvested by peritoneal lavage at 24 h after sham operation or trauma-hemorrhage and resuscitation, and monolayers were established as previously described (Ayala 1990). The monolayers of sMΦ and pMΦ (1×10^6 cells/ml) were stimulated with […] of lipopolysaccharide W/ml Click's medium containing 10% heat-inactivated FBS for 48 h at 37° C., 5% CO2, and 90% humidity to assess the cells' ability to release cytokines (Lipopolysaccharide W was from Escherichia coli 055:B5, Difco Laboratories, Detroit, Mich.) At the end of the incubation period, the culture supernatants were removed, centrifuged at 300 g for 15 min, divided into aliquots, and stored.
IL-10 concentrations in macrophage and splenocyte supernatants and IFN-γ levels in the splenocyte supernatants were determined using sandwich-enzyme-linked immunosorbent assay technique (ELISA) according to the manufacturer's recommendations (BD OptEIA ELISA set; BD Pharmingen, San Diego, Calif.).
IL-6 activity was determined by assessing the 72-h proliferation of the IL-6-dependent murine B cell hybridoma 7TD1 stimulated by serial dilutions of sMΦ and pMΦ supernatants (Ayala 1992). For the last 3 h of incubation, […] of a 3-(4,5-dimethylthiazol-2-yl)-2,5-diphenyltetrazolium bromide solution (5 mg/ml in RPMI 1640; Sigma Chemical, St. Louis, Mo.) was added to each well. The amount of dark blue formazan crystal formation was then measured spectrophotometrically. […]

Male SD rats = test: Survival and blood pressure after trauma-hemorrhage with 60% blood loss and no fluid resuscitation; assay type: in vivo, rat
Description: 16 rats were subjected to 60% removal of blood volume, using the same protocol found in Example 5.
Furthermore, crystalloid fluid resuscitation was administered following an initial 3-hour interval after the trauma and major blood loss, and rats were followed for 7 days. It has been observed that rats which survive for the initial 3 hours uniformly go on to survive for prolonged period of time and were then sacrificed. The survival rate is 68% for estrogen-treated rats, while all untreated control rats have died within the initial 3-hour interval (see FIG. 21).
Although E2 administration after trauma-hemorrhage (T-H) and fluid resuscitation produces salutary effects on organ functions, it was not known if E2 has any beneficial effects after major blood loss in the absence of fluid resuscitation. Male SD rats ˜250 g) underwent T-H (tissue trauma, BP 40 mmHg in 10 min and maintained at that BP by further blood withdrawal until maximum bleed out (MBO, 60% of total blood volume) occurred (45:t5 min)). E2 i.v. (1 mg/Kg, 0.4 ml/Kg volume, i.e., 120 μL/300 g body weight) or vehicle (cyclodextrin, CD) was then infused. No additional fluid was given for 3 hours. If rats survived, they received Ringer's lactate, 4× the MBO volume. A custom-fabricated 31p coil was placed on the surface of the rat's liver after laparotomy in another group, and spectra acquired using 4.7T NMR spectroscopy via a 31p coil in real time before and during hemorrhagic shock. Shock increased phosphomonoester and Pi with a concomitant decrease in β-ATP in both groups.

injured brain = test: Traumatic brain injury: FDG-PET/CT, diffusion tensor imaging and MRI edema; assay type: in vivo, rat
Description: In a second experiment, the efficacy of E2-SO4 treatment for TBI in a lateral fluid percussion (LFP) model was examined. This involved 6 groups of rats (n=5/group). All rats received a craniectomy. Groups 1, 2, 4 and 5 received LFP injury. Groups 1 and 4 were treated with E2 (1 mg/kg) 1 hr post-injury, groups 2 and 5 were vehicle (Veh)-treated and groups 3 and 6 were sham. Groups 1-3 underwent intracranial pressure (ICP), cerebral perfusion pressure (CPP) and partial oxygen pressure (pbtO2) monitoring. Groups 4-6 underwent fludoexoyglucose (FDG)-PET/CT and diffusion tensor imaging (DTI) analysis on days 1 and 7 post-induction. Relative standard uptake values (SUV) of upper half of brain to central value, fractional anisotropy (FA) and apparent diffusion coefficient (ADC) maps were calculated.
Rats were either treated with E2 or a saline vehicle control, where treatment is administered 1 hour after injury. […] The former is the area of deranged nerves, while the latter constitutes intact nerves.

C[C@]12CC[C@@H]3c4ccc(O)cc4CC[C@H]3[C@@H]1CC[C@@H]2O [17β-estradiol]
pMΦ IL-1β release [1]: partial restoration of pMΦ IL-1β release
pMΦ IL-6 production [1]: maintained at sham levels
pMΦ IL-10 production [1]: not affected by either trauma-hemorrhage or E2 treatment
sMΦ IL-6 release [1]: did not influence IL-6 release
sMΦ IL-10 release [1]: significantly reduced IL-10 release
sMΦ IL-12 production [1]: prevented the depression in sMΦ IL-12 production
3-hour survival rates without fluid resuscitation (Male SD rats; E2 i.v. 1 mg/Kg, 0.4 ml/Kg at MBO (60% of total blood volume), vehicle cyclodextrin): markedly improves 3-hour survival rates
long-term survival after resuscitation (Male SD rats; Ringer's lactate 4x MBO volume after 3 hours): increases long-term survival after resuscitation
reduction in FA, sum of volumes from DTI slices, compared to vehicle controls (injured brain; FIG. 49, treatment 1 hour after injury, images 24 hr after treatment): approximately 50%
FA (fractional anisotropy) change (injured brain; between Veh and treated groups): No significant FA change
Edema size (injured brain; day 1, treated group): 10.4±2.6 mm^3
Edema size (injured brain; day 7, treated group): 1.2±0.7 mm^3
